Earlier results, collected in PMC3993928 (Journal of Medicinal Chemistry, 2014).

Columns and labels:
δ opioid receptor (DOPr) [1] = target: T1, δ opioid receptor (DOPr) (Rattus norvegicus, UniProt P33533); conditions: read-out: Ki (nM) DOPr; [3H]diprenorphine displacement
δ opioid receptor (DOPr) [2] = target: T1, δ opioid receptor (DOPr); conditions: relative to DPDPE at 10 μM; dns = does not stimulate
κ opioid receptor (KOPr) [3] = target: T2, κ opioid receptor (KOPr) (Homo sapiens, UniProt P41145); conditions: relative to U69,593 at 10 μM; dns = does not stimulate
κ opioid receptor (KOPr) [4] = target: T2, κ opioid receptor (KOPr); conditions: read-out: Ki (nM) KOPr; [3H]diprenorphine displacement
μ opioid receptor (MOPr) [5] = target: T3, μ opioid receptor (MOPr) (Rattus norvegicus, UniProt P33535); conditions: read-out: EC50 (nM), MOPr; [35S]GTPγS binding
μ opioid receptor (MOPr) [6] = target: T3, μ opioid receptor (MOPr); conditions: read-out: Ki (nM) MOPr; [3H]diprenorphine displacement
C57BL/6 mice = conditions: mouse WWTW

T3 sequence (P33535 whole entry): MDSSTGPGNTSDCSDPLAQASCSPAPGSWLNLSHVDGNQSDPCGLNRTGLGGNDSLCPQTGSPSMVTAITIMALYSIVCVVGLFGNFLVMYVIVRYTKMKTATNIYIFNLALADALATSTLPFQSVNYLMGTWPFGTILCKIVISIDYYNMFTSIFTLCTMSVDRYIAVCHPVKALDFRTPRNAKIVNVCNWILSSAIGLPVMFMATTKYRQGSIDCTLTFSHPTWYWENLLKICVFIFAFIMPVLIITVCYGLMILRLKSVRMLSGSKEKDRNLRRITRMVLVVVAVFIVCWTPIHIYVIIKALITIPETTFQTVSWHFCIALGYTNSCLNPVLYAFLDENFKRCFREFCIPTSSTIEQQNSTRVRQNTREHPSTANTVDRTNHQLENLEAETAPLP
T2 sequence (P41145 whole entry): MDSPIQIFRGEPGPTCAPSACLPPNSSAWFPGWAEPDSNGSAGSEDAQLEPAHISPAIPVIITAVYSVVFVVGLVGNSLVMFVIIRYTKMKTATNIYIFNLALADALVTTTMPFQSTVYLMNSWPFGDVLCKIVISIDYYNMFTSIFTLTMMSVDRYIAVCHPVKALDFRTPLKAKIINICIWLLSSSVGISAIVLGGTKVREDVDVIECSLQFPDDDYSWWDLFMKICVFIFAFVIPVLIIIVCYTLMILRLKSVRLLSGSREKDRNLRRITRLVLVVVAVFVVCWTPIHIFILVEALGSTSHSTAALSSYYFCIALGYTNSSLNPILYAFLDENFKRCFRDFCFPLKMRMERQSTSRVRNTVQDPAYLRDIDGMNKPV
T1 sequence (P33533 whole entry): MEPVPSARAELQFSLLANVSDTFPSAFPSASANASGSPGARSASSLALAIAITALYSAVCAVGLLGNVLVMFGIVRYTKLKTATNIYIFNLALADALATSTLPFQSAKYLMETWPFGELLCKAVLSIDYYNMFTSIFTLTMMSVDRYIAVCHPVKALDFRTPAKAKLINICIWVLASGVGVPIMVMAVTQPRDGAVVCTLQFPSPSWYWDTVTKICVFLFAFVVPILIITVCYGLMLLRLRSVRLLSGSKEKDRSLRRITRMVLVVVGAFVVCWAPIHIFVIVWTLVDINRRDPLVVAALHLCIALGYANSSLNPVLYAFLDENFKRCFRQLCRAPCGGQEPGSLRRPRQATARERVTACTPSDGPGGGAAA

Row | Molecule | Ki (δ opioid receptor (DOPr) [1]) [nM] | efficacy (% of control), DOPr (δ opioid receptor (DOPr) [2]) | efficacy (% of control), KOPr (κ opioid receptor (KOPr) [3]) | Ki (κ opioid receptor (KOPr) [4]) [nM] | EC50 (μ opioid receptor (MOPr) [5]) [nM] | Ki (μ opioid receptor (MOPr) [6]) [nM] | duration of antinociceptive action relative to 4 (fold longer) (C57BL/6 mice)
1 | Dmt-c(SEtS)[DCys-Aci-DPen]OH [compound 1] | 2.3 ± 0.5 | dns | dns | 776 ± 149 | 4.7 ± 0.7 | 2.4 ± 0.7 | 
2 | CN1CC[C@]23c4c5ccc(O)c4O[C@H]2[C@@H](O)C=C[C@H]3[C@H]1C5 [morphine] |  |  |  |  |  |  | approximately 2 fold
